Common to all, as to assay: NCI-60 cell line screen, 48 h
The subject of experiment [1] is A549 NSCLC.
Experiment [2] concerns BT-549 breast.
Experiment [3] relates to EKVX NSCLC.
The subject of experiment [4] is KM12 colon.
Experiment [5] deals with LOX IMVI melanoma.
Experiment [6] concerns M14 melanoma.
The subject of experiment [7] is NCI-H226 lung.
The test system of experiment [8] is NCI-H522 lung.
Experiment [9] relates to RPMI-8226 leukemia.
Experiment [10] concerns RXF 393 renal.
Experiment [11] concerns SF-268 CNS.
Experiment [12] concerns SK-MEL-2 melanoma.
Experiment [13] deals with SK-MEL-28 melanoma.
Experiment [14] has as its system UO-31 renal.

Values joined by “and” are separate entries in the source; they are usually repeats but may differ in a detail not shown here. Identical values can stand only once.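 96-well plates; 48 h exposure; 5 concentrations. Endpoints by linear interpolation between flanking doses. Not reached: highest tested concentration assigned. Here, GI50 denotes the concentration required for 50% inhibition of growth. TGI denotes the concentration required for complete inhibition of growth.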

As to `Cc1ccc(OCC2OC(n3cnc4c(Cl)nc(Nc5cc(Cl)cc(Cl)c5)nc43)CC2Oc2ccc(C)cc2)cc1` (configuration not stated), the TGI in experiment [1], in experiment [2], in experiment [3], in experiment [4], in [5] and in experiment [6] was more than 100 µM each time. The TGI in [7], in experiment [8], in experiment [9], in experiment [10], in experiment [11] and in [12] was more than 100 µM each time. Besides, the TGI in experiment [13] and in experiment [14] was more than 100 µM throughout.

Consider `COc1ccccc1C1c2cc3c(cc2OC2(OC)COC(=O)C12)OCO3` (configuration not stated), for which the TGI is more than 100 µM in experiment [1]; more than 100 µM in [2]; more than 82.3 µM in [3]; 45.5 µM in experiment [4]; 67.1 µM in experiment [5]; 43.3 µM in experiment [6]. The TGI in experiment [7] is more than 87.5 µM; in experiment [8], more than 27.3 µM; in [9], 28.3 µM; in [10] it was 44.2 µM; in [11], 83.9 µM; in experiment [12], 55.6 µM. Moreover, the TGI in experiment [13] is 44.2 µM; in [14], 65.6 µM.

For the compound `COC(=O)c1cc2c(cc1Cl)Sc1nnc(Nc3ccccc3)n1S2(=O)=O`, the TGI in experiment [1] was found to be 26.9 µM; in [2] it was 14.5 µM; in experiment [3] it was 19.9 µM; in experiment [4] it was 8.11 µM; in [5] it was 93.6 µM; in experiment [6], 17.5 µM. The TGI in experiment [7] was found to be 14.8 µM; in [8], 3.26 µM; in experiment [9], 4.02 µM; in experiment [10] it was 5.96 µM; in experiment [11], 5.48 µM; in experiment [12] it was 8.79 µM. For the same compound, the figures for the TGI in experiment [13] and in experiment [14] were 10.5 µM and 7.56 µM, respectively.

With `O=C(NCCN(CCNC(=O)c1cccc(O)c1O)CCNC(=O)c1cccc(O)c1O)c1cccc(O)c1O`, the TGI in experiment [1] was more than 100 µM; in experiment [2], more than 100 µM; in experiment [3], more than 100 µM; in [4], more than 100 µM; in experiment [5], more than 51.5 µM; in experiment [6] it was more than 100 µM. Also, the TGI is 85.6 µM in experiment [7]; 15.4 µM in experiment [8]; more than 59.7 µM in experiment [9]; 94.6 µM in experiment [10]; more than 100 µM in experiment [11]; more than 100 µM in experiment [12]. Also, the TGI in experiment [13] and in experiment [14] was more than 100 µM in each case.

In the case of `CCOc1cnc(C(O)(c2ccccc2)c2ccccc2)o1`, the TGI in experiment [1], in experiment [2], in experiment [3], in experiment [4], in experiment [5] and in experiment [6] was more than 100 µM each time. Also, the TGI in experiment [7], in experiment [8], in experiment [9], in experiment [10], in [11] and in experiment [12] was more than 100 µM each time. The TGI in experiment [13] and in experiment [14] was more than 100 µM in each case.

Consider `COc1cc2nc(Cl)nc(NS(=O)(=O)c3cc4ccccc4s3)c2cc1OC`, for which the TGI in experiment [1] is more than 100 µM; in experiment [2], 57.9 µM; in experiment [3], 66.5 µM; in experiment [4], 51.2 µM; in experiment [5], 59.5 µM; in experiment [6] it was 85 µM. The TGI in experiment [7] is more than 100 µM; in [8], 74.6 µM; in experiment [9] it was 44.9 µM; in experiment [10] it was 37.9 µM; in [11], more than 100 µM; in experiment [12], 61.1 µM. Besides, the TGI amounted to 0.11 µM in experiment [13] and 33.3 µM in experiment [14].

`Cc1nc2sc3cccc(Cl)c3n2c(=O)c1N=Nc1ccc(Cl)cc1`: the TGI in [1], in [2], in experiment [3], in experiment [4], in experiment [5] and in experiment [6] was more than 100 µM in each case. Further, the TGI in experiment [7], in experiment [8], in [9], in experiment [10], in [11] and in experiment [12] was more than 100 µM throughout. Moreover, the TGI in experiment [13] was more than 100 µM.

On to `O=S(=O)(/N=C(\NO)Nc1ccc(Cl)cc1)c1cc(C(F)(F)F)cc(C(F)(F)F)c1`, for which the TGI came out at 34.5 µM in experiment [1]; 33.3 µM in [2]; 30.6 µM in [3]; 41.1 µM in [4]; 34.2 µM in experiment [5]; 32.1 µM in experiment [6]. For the same compound, the TGI worked out at 35.9 µM in [7]; 40.4 µM in experiment [8]; 41 µM in [10]; 50.7 µM in [11]; 32.7 µM in [12]; 39 µM in experiment [13].

For the compound `CCN1/C(=C/C#C/C(C)=C\c2sc3ccc(Cl)cc3[n+]2CC)Sc2ccc(Cl)cc21`, the TGI in experiment [1] was determined as 22 µM; in experiment [2] it was 6 µM; in experiment [3] it was 20.8 µM; in [4], 19.4 µM; in experiment [5], 14.6 µM; in experiment [6], 16.1 µM. For the same compound, the TGI came to 21.9 µM in experiment [7]; 6.02 µM in [8]; 21.3 µM in [10]; 21.4 µM in experiment [11]; 4.85 µM in experiment [12]; 26.5 µM in experiment [13]. In addition, the TGI in [14] is 14.5 µM.

Turning to `COC1(OC)c2occc2C(=N)c2ccc(=O)oc21`, the TGI in experiment [1], in experiment [2], in experiment [3], in experiment [5], in experiment [6] and in experiment [7] was more than 100 µM throughout. In addition, the TGI in experiment [8], in [9], in experiment [10], in experiment [11], in [12] and in [13] was more than 100 µM throughout. Besides, the TGI in experiment [14] is more than 100 µM.

Regarding `O=[N+]([O-])c1ccc(/C=N/Nc2nc3ccccc3[nH]2)o1`, the TGI in experiment [1] was 30.4 µM; in experiment [2] it was 31.1 µM; in experiment [3] it was 67.2 µM; in experiment [4], 24.1 µM; in experiment [5], 35 µM; in experiment [6] it was 27.6 µM. For the same compound, the TGI stood at 55.5 µM in [7]; 41.2 µM in experiment [8]; 15.3 µM in experiment [9]; 28.2 µM in [10]; 67.6 µM in experiment [11]; 23.8 µM in experiment [13]. The compound further displayed a TGI in experiment [14] of 47.5 µM.

As for `O=C1CC(O)c2cscc21` (configuration not stated), the TGI in experiment [2], in experiment [3], in experiment [4], in experiment [5], in experiment [7] and in experiment [8] was more than 100 µM each time. The TGI in experiment [9], in [10], in experiment [11], in [12] and in [13] was more than 100 µM each time.

Regarding `O=C(Nn1c(-c2ccccc2)nc2ccccc2c1=O)c1ccc(Cl)cc1`, the TGI in [1], in experiment [2], in experiment [3], in experiment [4], in experiment [5] and in experiment [6] was more than 100 µM each time. The TGI in [7], in experiment [8], in [9], in experiment [10], in [11] and in experiment [13] was more than 100 µM throughout. The TGI in experiment [14] is more than 100 µM.

With `O=[N+]([O-])c1cccc2nc3ccccc3c(NCCCCCNc3c4ccccc4nc4cccc([N+](=O)[O-])c34)c12`, the GI50 is 0.183 µM in [2]; 0.0346 µM in [3]; 0.0746 µM in experiment [5]; 0.0249 µM in experiment [7]; 0.0559 µM in experiment [13]; 0.0192 µM in [14]. The TGI in experiment [2] was 0.39 µM and 1.02 µM; in experiment [3], 0.353 µM and 1.25 µM; in experiment [4] it was 0.249 µM and 0.029 µM; in experiment [6], 0.198 µM and 0.024 µM; in experiment [7] it was 0.562 µM and 1.94 µM; in experiment [8], 0.388 µM. Also, the TGI was 0.637 µM in experiment [9]; 0.111 µM in [10]; 0.285 µM in [12]; 0.455 µM and 0.241 µM in experiment [13]; 0.406 µM and 0.0604 µM in experiment [14].

With `CCOC(=O)C1(C/C=C\CBr)CCCC1=O` (configuration not stated), the TGI in [1] is more than 100 µM; in experiment [2] it was 80.3 µM; in experiment [3] it was more than 100 µM; in [4] it was more than 100 µM; in [5], 31.2 µM; in experiment [6], 75.1 µM. Also, the TGI in [7] is 88.6 µM; in experiment [8], 46.8 µM; in [10], 31.3 µM; in [11], more than 100 µM; in experiment [12] it was more than 100 µM; in experiment [13], more than 100 µM. In experiment [14], the TGI was found to be 59.5 µM.

Regarding `O=c1c(-c2ccccc2)nnc2n(Cc3ccccc3)c3ccccc3n12`, the TGI in experiment [1], in experiment [2], in experiment [3], in experiment [4], in experiment [5] and in experiment [6] was more than 100 µM in each case. Moreover, the TGI in experiment [7], in [8], in experiment [10], in experiment [11], in [12] and in [13] was more than 100 µM throughout. Besides, the TGI in experiment [14] is more than 100 µM.

As to `COC1(OC)CCc2c(sc3ncnc(Nc4cccc(Br)c4)c23)C1`, the TGI in [1] is more than 100 µM; in [2], more than 100 µM; in experiment [3] it was 59.2 µM; in [4] it was more than 100 µM; in [5], more than 100 µM; in experiment [6], more than 100 µM. The TGI was more than 100 µM in experiment [7]; 30.3 µM in [8]; 59.5 µM in experiment [9]; 62.4 µM in [10]; more than 100 µM in experiment [11]; more than 100 µM in experiment [12]. This compound gave a TGI in [14] of more than 100 µM.

Take `COc1ccc(OC)c2sc(N3C(=O)/C(=C/c4cccc(Oc5ccccc5)c4)N=C3c3ccccc3)nc12`: the TGI in experiment [1], in [2], in experiment [3], in experiment [4], in experiment [5] and in experiment [6] was more than 100 µM in each case. For the same compound, the TGI in [8], in experiment [9], in [10], in experiment [11], in experiment [12] and in experiment [13] was more than 100 µM each time. The compound further registered a TGI in experiment [14] of more than 100 µM.

Turning to `NC1=NC2(COC(c3ccccc3)(c3ccccc3)c3ccccc3)OC(COC(c3ccccc3)(c3ccccc3)c3ccccc3)C(O)C2O1` (configuration not stated), the TGI in experiment [1], in experiment [2], in experiment [3], in [4], in experiment [5] and in experiment [6] was more than 100 µM each time. Also, the TGI in experiment [7] was more than 100 µM; in experiment [8], more than 100 µM; in [9] it was 52.4 µM; in experiment [10], more than 100 µM; in [12] it was 85.5 µM; in experiment [13], more than 100 µM. This compound also showed a TGI in experiment [14] of more than 100 µM.

Turning to `NNc1nnc(CCCCCCCCc2nnc(NN)n2N)n1N`, the TGI in experiment [1] is more than 100 µM; in experiment [2], 90.3 µM; in experiment [3], more than 100 µM; in experiment [4] it was more than 100 µM; in [5], more than 100 µM; in experiment [6], more than 100 µM. Moreover, the TGI in experiment [7], in experiment [8], in [10], in experiment [11], in [12] and in experiment [13] was more than 100 µM throughout. This compound also returned a TGI in experiment [14] of more than 100 µM.

The values are drawn from PubChem BioAssay (NCI).
